ChEMBL document CHEMBL3885881, “DrugMatrix”

Species: Rattus norvegicus
Assay: DrugMatrix - Regimen: Daily Repeat
Assay type: toxicity, organism-based, Sprague-Dawley
Set-up: regimen Daily Repeat, gender Male, age 6-8 weeks
Conditions: in vivo, po, route oral GAVAGE, vehicle .5 % CMC; for BASOPHIL / EOSINOPHIL / ERYTHROCYTE COUNT / HEMATOCRIT / HEMOGLOBIN / LEUKOCYTE COUNT / LYMPHOCYTE / MEAN CORPUSCULAR HEMOGLOBIN / MEAN CORPUSCULAR HEMOGLOBIN CONCENTRATION / MEAN CORPUSCULAR VOLUME / MONOCYTE / NEUTROPHIL / PLATELET COUNT / ABSOLUTE BASOPHIL / ABSOLUTE EOSINOPHIL / ABSOLUTE LYMPHOCYTE / ABSOLUTE MONOCYTE / ABSOLUTE SEGMENTED NEUTROPHIL / NUCLEATED RED BLOOD CELLS: tissue Blood
[1] = 0 mg/kg, 72 h, dose level Control, time 3 day
[2] = 0 mg/kg, 72 h, tissue Plasma, dose level Control, time 3 day
[3] = 0 mg/kg, 120 h, dose level Control, time 5 day
[4] = 0 mg/kg, 120 h, tissue Plasma, dose level Control, time 5 day
[5] = 7 mg/kg, 72 h, dose level Low, time 3 day
[6] = 7 mg/kg, 72 h, tissue Plasma, dose level Low, time 3 day
[7] = 7 mg/kg, 120 h, dose level Low, time 5 day
[8] = 7 mg/kg, 120 h, tissue Plasma, dose level Low, time 5 day

SMILES: NC1=NC(=O)C(c2ccccc2)O1 (stereo unspecified) [PEMOLINE]
- BASOPHIL [1]: 0%
- EOSINOPHIL [1]: 0.33%
- ERYTHROCYTE COUNT [1]: 6.03 x10E6/uL
- HEMATOCRIT [1]: 38.8%
- HEMOGLOBIN [1]: 14.26 G/DL
- LEUKOCYTE COUNT [1]: 10.64 x10E3/uL
- LYMPHOCYTE [1]: 83.33%
- MEAN CORPUSCULAR HEMOGLOBIN [1]: 23.64 pg
- MEAN CORPUSCULAR HEMOGLOBIN CONCENTRATION [1]: 36.74 G/DL
- MEAN CORPUSCULAR VOLUME [1]: 64.32 fL
- MONOCYTE [1]: 3.33%
- NEUTROPHIL [1]: 13%
- PLATELET COUNT [1]: 1264.4 x10E3/uL
- ALANINE AMINOTRANSFERASE [2]: 38.83 u/L
- ALBUMIN [2]: 3.55 G/DL
- ALKALINE PHOSPHATASE [2]: 368.33 u/L
- ASPARTATE AMINOTRANSFERASE [2]: 66.17 u/L
- BLOOD UREA NITROGEN [2]: 15.67 mg/dL
- CHLORIDE [2]: 104.33 MEQ/L
- CHOLESTEROL [2]: 76.5 mg/dL
- CREATINE PHOSPHOKINASE [2]: 166.83 u/L
- CREATININE [2]: 0.52 mg/dL
- GLUCOSE [2]: 173.17 mg/dL
- PHOSPHORUS [2]: 11.68 mg/dL
- POTASSIUM [2]: 6.43 MEQ/L
- SODIUM [2]: 149.5 MEQ/L
- TOTAL PROTEIN [2]: 5.93 G/DL
- BASOPHIL [3]: 0%
- EOSINOPHIL [3]: 0%
- ERYTHROCYTE COUNT [3]: 5.88 x10E6/uL
- HEMATOCRIT [3]: 37.87%
- HEMOGLOBIN [3]: 14.48 G/DL
- LEUKOCYTE COUNT [3]: 12.43 x10E3/uL
- LYMPHOCYTE [3]: 84.17%
- MEAN CORPUSCULAR HEMOGLOBIN [3]: 24.65 pg
- MEAN CORPUSCULAR HEMOGLOBIN CONCENTRATION [3]: 38.25 G/DL
- MEAN CORPUSCULAR VOLUME [3]: 64.47 fL
- MONOCYTE [3]: 4.33%
- NEUTROPHIL [3]: 11.5%
- PLATELET COUNT [3]: 1182.33 x10E3/uL
- ALANINE AMINOTRANSFERASE [4]: 38.67 u/L
- ALBUMIN [4]: 3.55 G/DL
- ALKALINE PHOSPHATASE [4]: 342.5 u/L
- ASPARTATE AMINOTRANSFERASE [4]: 63.33 u/L
- BLOOD UREA NITROGEN [4]: 15.5 mg/dL
- CHLORIDE [4]: 104 MEQ/L
- CHOLESTEROL [4]: 75.5 mg/dL
- CREATINE PHOSPHOKINASE [4]: 142.5 u/L
- CREATININE [4]: 0.62 mg/dL
- GLUCOSE [4]: 165.17 mg/dL
- PHOSPHORUS [4]: 10.87 mg/dL
- POTASSIUM [4]: 6.85 MEQ/L
- SODIUM [4]: 150.17 MEQ/L
- TOTAL PROTEIN [4]: 5.93 G/DL
- ABSOLUTE BASOPHIL [5]: 0 CELLS/uL
- ABSOLUTE EOSINOPHIL [5]: 0 CELLS/uL
- ABSOLUTE LYMPHOCYTE [5]: 8380 CELLS/uL
- ABSOLUTE MONOCYTE [5]: 87.67 CELLS/uL
- ABSOLUTE SEGMENTED NEUTROPHIL [5]: 732.33 CELLS/uL
- BASOPHIL [5]: 0%
- EOSINOPHIL [5]: 0%
- ERYTHROCYTE COUNT [5]: 5.42 x10E6/uL
- HEMATOCRIT [5]: 34%
- HEMOGLOBIN [5]: 13.77 G/DL
- LEUKOCYTE COUNT [5]: 9.2 x10E3/uL
- LYMPHOCYTE [5]: 91.33%
- MEAN CORPUSCULAR HEMOGLOBIN [5]: 25.43 pg
- MEAN CORPUSCULAR HEMOGLOBIN CONCENTRATION [5]: 40.5 G/DL
- MEAN CORPUSCULAR VOLUME [5]: 62.87 fL
- MONOCYTE [5]: 1%
- NEUTROPHIL [5]: 7.67%
- NUCLEATED RED BLOOD CELLS [5]: 0 /100WBC
- PLATELET COUNT [5]: 1245 x10E3/uL
- ALANINE AMINOTRANSFERASE [6]: 52 u/L
- ALBUMIN [6]: 4.3 G/DL
- ALKALINE PHOSPHATASE [6]: 415.33 u/L
- ASPARTATE AMINOTRANSFERASE [6]: 90 u/L
- BLOOD UREA NITROGEN [6]: 14 mg/dL
- CARBON DIOXIDE [6]: 32 mmol/L
- CHLORIDE [6]: 99.33 MEQ/L
- CHOLESTEROL [6]: 78.67 mg/dL
- CREATINE PHOSPHOKINASE [6]: 330.33 u/L
- CREATININE [6]: 0.25 mg/dL
- GLUCOSE [6]: 141.33 mg/dL
- LACTATE DEHYDROGENASE [6]: 168.67 u/L
- LIPASE [6]: 10.33 u/L
- PHOSPHORUS [6]: 11.6 mg/dL
- POTASSIUM [6]: 6.56 MEQ/L
- SODIUM [6]: 145.47 MEQ/L
- TOTAL BILIRUBIN [6]: 0.2 mg/dL
- TOTAL PROTEIN [6]: 6.2 G/DL
- URIC ACID [6]: 1.03 mg/dL
- ABSOLUTE BASOPHIL [7]: 0 CELLS/uL
- ABSOLUTE EOSINOPHIL [7]: 0 CELLS/uL
- ABSOLUTE LYMPHOCYTE [7]: 13324.33 CELLS/uL
- ABSOLUTE MONOCYTE [7]: 202.67 CELLS/uL
- ABSOLUTE SEGMENTED NEUTROPHIL [7]: 1839.67 CELLS/uL
- BASOPHIL [7]: 0%
- EOSINOPHIL [7]: 0%
- ERYTHROCYTE COUNT [7]: 5.15 x10E6/uL
- HEMATOCRIT [7]: 31.77%
- HEMOGLOBIN [7]: 12.83 G/DL
- LEUKOCYTE COUNT [7]: 15.37 x10E3/uL
- LYMPHOCYTE [7]: 86.67%
- MEAN CORPUSCULAR HEMOGLOBIN [7]: 24.93 pg
- MEAN CORPUSCULAR HEMOGLOBIN CONCENTRATION [7]: 40.47 G/DL
- MEAN CORPUSCULAR VOLUME [7]: 61.63 fL
- MONOCYTE [7]: 1.33%
- NEUTROPHIL [7]: 12%
- NUCLEATED RED BLOOD CELLS [7]: 0 /100WBC
- PLATELET COUNT [7]: 1293.33 x10E3/uL
- ALANINE AMINOTRANSFERASE [8]: 55.67 u/L
- ALBUMIN [8]: 4.1 G/DL
- ALKALINE PHOSPHATASE [8]: 349 u/L
- ASPARTATE AMINOTRANSFERASE [8]: 73.67 u/L
- BLOOD UREA NITROGEN [8]: 18.33 mg/dL
